Tests used:
[1] = tested on: participants with major depressive disorder (MDD); assay: Treatment-emergent adverse events (safety), study NCT04476030; type: in vivo, human; details: one patient, approximately 1 hour after Compound (1) 50 mg on Day 7
Method: A randomized, double-blind, parallel-group, active/placebo-controlled study (NCT04476030) in participants with major depressive disorder (MDD) was conducted. The study evaluated the efficacy and safety of Compound (1) 50 mg co-initiated with standard-of-care (SOC) antidepressant therapies (ADTs) (Compound (1)+ADT) vs placebo co-initiated with SOC ADT (placebo+ADT) in adults with MDD. Patients were randomized 1:1 to once-daily, blinded Compound (1)+ADT or placebo+ADT for 14 days then continued open-label SOC ADT for 28 more days.
An AE could therefore be any unfavorable and unintended sign (including an abnormal laboratory finding), symptom or disease temporally associated with the use of a medicinal (investigational) product whether or not related to the medicinal (investigational) product. In clinical studies, an AE could include an undesirable medical condition occurring at any time, including baseline or washout periods, even if no study treatment had been administered.
A treatment emergent adverse event (TEAE) was defined as an AE with onset after the start of investigational product (IP; Compound (1) or placebo), or any worsening of a pre-existing medical condition/AE with onset after the start of IP and throughout the study. The term IP included any Sage IP, a comparator, or a placebo administered in a clinical study. […]

[2] = tested on: patients with major depressive disorder; details: MDD patients, meta-analysis; cited from earlier work
[3] = cited from earlier work

Compound	Rates of gastrointestinal adverse reactions compared to placebo [2]	further results
C[C@@]1(O)CC[C@H]2[C@H](CC[C@@H]3[C@@H]2CC[C@]2(C)[C@@H](C(=O)Cn4cc(C#N)cn4)CC[C@@H]32)C1 [Compound (1), 1-(2-((3R,5R,8R,9R,10S,13S,14S,17S)-3-hydroxy-3,13-dimethylhexadecahydro-1H-cyclopenta[a]phenanthren-17-yl)-2-oxoethyl)-1H-pyrazole-4-carbonitrile]		Investigator-assessed relationship of serious TEAE (seizure-like phenomena) to study drug [1]: related
COc1ccc2cccc(CCNC(C)=O)c2c1 [agomelatine]	higher rates	
CC(NC(C)(C)C)C(=O)c1cccc(Cl)c1 (centres unmarked) [bupropion]	higher rates	
CN(C)CCCC1(c2ccc(F)cc2)OCc2cc(C#N)ccc21 (centres unmarked) [citalopram]	higher rates	
CN(C)CC(c1ccc(O)cc1)C1(O)CCCCC1 (centres unmarked) [desvenlafaxine]	higher rates	
CNCC[C@H](Oc1cccc2ccccc12)c1cccs1 [duloxetine]	higher rates	
CN(C)CCC[C@@]1(c2ccc(F)cc2)OCc2cc(C#N)ccc21 [escitalopram]	higher rates	Tolerability on the gastrointestinal tract among antidepressants [2]: least tolerated
CNCCC(Oc1ccc(C(F)(F)F)cc1)c1ccccc1 (centres unmarked) [fluoxetine]	higher rates	
COCCCC/C(=N\OCCN)c1ccc(C(F)(F)F)cc1 [fluvoxamine]	higher rates	
CCN(CC)C(=O)[C@@]1(c2ccccc2)C[C@H]1CN [levomilnacipran]	higher rates	
CN1CCN2c3ncccc3Cc3ccccc3C2C1 (centres unmarked) [mirtazapine]	higher rates	
Fc1ccc([C@@H]2CCNC[C@H]2COc2ccc3c(c2)OCO3)cc1 [paroxetine]	higher rates	
CCOc1ccccc1OC(c1ccccc1)C1CNCCO1 (centres unmarked) [reboxetine]	higher rates	
CN[C@H]1CC[C@@H](c2ccc(Cl)c(Cl)c2)c2ccccc21 [sertraline]	higher rates	Tolerability on the gastrointestinal tract among antidepressants [2]: least tolerated; Incidence of diarrhea ([3]; compared to other SSRIs and venlafaxine): higher incidence
COc1ccc(C(CN(C)C)C2(O)CCCCC2)cc1 (centres unmarked) [venlafaxine]	higher rates	Rates of nausea and vomiting ([3]; compared to SSRIs and duloxetine): higher rates
Cc1ccc(Sc2ccccc2N2CCNCC2)c(C)c1 [vortioxetine]	higher rates	

Reference: patent publication US20250177418A1, “NEUROACTIVE STEROIDS FOR TREATMENT OF GASTROINTESTINAL DISEASES OR CONDITIONS” (Sage Therapeutics, Inc., priority 2022, published 2025)
